Measured values reported in patent US20230181564A1, “Potent Tetrahydroquinolone Eliminates Apicomplexan Parasites” (The University of Chicago, priority 2020, published 2023).
≈ marks a conversion by molar mass, not a printed value.

Legend:
[1] = tested on: Human Foreskin Fibroblast (HFF); assay: Cytotoxicity assay with WST-1 on HFF; format: cell-based; conditions: WST assay, HFF; second value of cell
Description: PBS Sol/Toxicity pH7.4 refers to solubility of the compound in Phosphate Buffered Saline (PBS) at pH7.4. […] Tachy/Brady IC50 was determined in studies in which cultures of parasites in HFF were treated with varying concentrations of the compound and there was 50% inhibition of the replication (number) of parasites. Parasites were RH-YFP expressing tachyzoites (Tachy) and EGS (Brady) strains. Studies of effects of inhibitors on HFF or on T.gondii tachyzoites were performed with triplicate wells in at least two biological replicate experiments. Studies of effects on bradyzoites were performed at least twice in at least two biological replicate experiments. Compounds with much less inhibition of mammalian than T. gondii cytochrome bc in the saffarine enzyme assay (indicated by **) provide potential to further develop compounds, if unanticipated toxicity occurs from JAG21.
Cytotoxicity Assays in parallel with RH Strain T.gondii in vitro studies. Toxicity assays used WST-1 cell proliferation reagent (Roche) as in Fomovska et al. (2012). HFF were grown on a flat, clear-bottomed, black 96-well plate. Confluent HFF were treated with inhibitory compounds at concentrations of 10 μM and 50 μM. Compounds were diluted in IMDM-C, and 20 μL were added to each designated well, with triplicates for each condition. A gradient with 2 fold-decreasing concentrations of DMSO from 10% to 0% in colorless, translucent IMDM-C was used as a control. The plate was incubated for 72 hours at 37° C. 10 μL WST-1 reagent (Roche) were added to each well. Cells were incubated for 30-60 minutes. Absorbance was read using a fluorimeter at 420 nm. A higher degree of color change (and absorbance) indicated mitochondrial activity and cell viability.
Because T. gondii grows inside cells, if a compound were toxic to host HFF then it would make the compound appear to be spuriously effective (Fomovska et al. 2012; Fomovska et al. 2012a), when in actuality only toxicity for the host cell would be measured. Cytotoxicity to HFF was therefore assessed for all compounds at 10 μM. Results of this experiment are in Table 1, toxicity column. A two-way ANOVA and subsequent pairwise comparison found none of the differences in absorbance, compared to the media-DMSO vehicle controls, to be statistically significant (p>0.05). Most of these compounds are not toxic at 10 μM (the limit of solubility) and that cytotoxicity to cells can be attributed to DMSO in the solution, not the compound.

[2] = Kinetic/aqueous solubility in PBS pH 7.4; format: physicochemical; conditions: for PBS Sol pH7.4: solubility in Phosphate Buffered Saline pH 7.4, first value of cell
Description: PBS Sol/Toxicity pH7.4 refers to solubility of the compound in Phosphate Buffered Saline (PBS) at pH7.4. […] Parasites were RH-YFP expressing tachyzoites (Tachy) and EGS (Brady) strains. Studies of effects of inhibitors on HFF or on T.gondii tachyzoites were performed with triplicate wells in at least two biological replicate experiments. Studies of effects on bradyzoites were performed at least twice in at least two biological replicate experiments. Compounds with much less inhibition of mammalian than T. gondii cytochrome bc in the saffarine enzyme assay (indicated by **) provide potential to further develop compounds, if unanticipated toxicity occurs from JAG21.
Structure Activity Relationship (SAR) and comparison of effect on T.gondii and HFF enzyme activity. […] The MDCK-MDR1 Permeability Assay was also performed. […] These were measured by Chem Partners.

[3] = Metabolic stability in mouse liver microsomes; format: in vitro ADME; conditions: predicted half-life in mouse liver microsomes; no unit in table (101 minutes for JAG021)

Structure (SMILES)	Toxicity* (highest concentration tested that does not show toxicity to HFF) [1]	PBS Sol pH7.4 [2]	further results
Cc1[nH]c2c(c(=O)c1-c1ccc(O)cc1)CCCC2 [JAG094]	ND/5 μM		
Cc1[nH]c2c(c(=O)c1-c1ccc(Oc3cc(Cl)cc(Cl)c3)cc1)CCCC2 [AS022]		6.25 μM	T1/2 (M) [3]: 28.62
CCC1CCc2c([nH]c(C)c(-c3ccc(Oc4ccc(OC(F)(F)F)cc4)cc3)c2=O)C1 (stereo not shown) [JAG121]		0.16 μM	T1/2 (M) [3]: 63.28
Cc1[nH]c2ccnn2c(=O)c1-c1ccc(Oc2ccc(OC(F)(F)F)cc2)cc1 [MJM141]		0.94 μM	
COc1ccc(Oc2ccc(-c3c(C)[nH]c4c(c3=O)CCCC4)cc2)cc1OC [AS033]	ND/5 μM		
Cc1[nH]c2c(c(=O)c1-c1ccc(Oc3ccc(Cl)c(Cl)c3)cc1)CCCC2 [JAG084]		0.68 μM	T1/2 (M) [3]: 63.1
Cc1[nH]c2c(c(=O)c1-c1ccc(OCc3ccccc3)cc1)CCCC2 [JAG204]	ND/5 μM		
CCOC(=O)Oc1c2c(nc(C)c1-c1ccc(Oc3ccc(OC(F)(F)F)cc3)cc1)CCCC2 [JAG171]	ND/5 μM		
Cc1[nH]c2c(c(=O)c1-c1ccc(Oc3ccc(OC(F)(F)F)cc3)cc1)CC(C(F)(F)F)CC2 (stereo not shown) [JAG100]	ND/5 μM		
Cc1[nH]c2c(c(=O)c1-c1ccc(Oc3ccc(OC(F)(F)F)cc3)cc1)CC(C)CC2 (stereo not shown) [JAG106]	ND/5 μM		
Cc1[nH]c2cc(-c3ccccc3)nn2c(=O)c1-c1ccc(Oc2ccc(OC(F)(F)F)cc2)cc1 [JAG015]	ND/5 μM		
O=c1c2c([nH]c(CO)c1-c1ccc(Oc3ccc(OC(F)(F)F)cc3)cc1)CC(C(F)(F)F)CC2 (stereo not shown) [JAG187]	ND/5 μM		
Cc1[nH]c2c(c(=O)c1-c1ccc(Oc3ccc(F)c(Cl)c3)cc1)CCCC2 [AS021]		2 μM	T1/2 (M) [3]: 41.09
Cc1cc2[nH]c(C)c(-c3ccc(Oc4ccc(OC(F)(F)F)cc4)cc3)c(=O)n2n1 [JAG006]	ND/5 μM		
Cc1[nH]c2c(c(=O)c1-c1ccc(Oc3ccc(OC(F)(F)F)cc3)cc1)CCC(C(F)(F)F)C2 (stereo not shown) [JAG162]		0.02 μM	T1/2 (M) [3]: 144.43
O=C(O)c1[nH]c2c(c(=O)c1-c1ccc(Oc3ccc(OC(F)(F)F)cc3)cc1)CCCC2 [JAG091]	ND/5 μM		
Cc1[nH]c2c(c(=O)c1-c1ccc(Oc3ccc(F)cc3)cc1)CCCC2 [JAG058]		2.38 μM	T1/2 (M) [3]: 39.17
Cc1[nH]c2c(c(=O)c1-c1cccc(Oc3ccc(C(F)(F)F)cc3)c1)CCCC2 [NP035]	ND/5 μM		
Cc1c(-c2ccc(Oc3ccc(Cl)cc3)cc2)c(=O)c2c(n1C)CCCC2 [JAG077]	ND/5 μM		
Cc1[nH]c2c(c(=O)c1-c1cccc(Oc3cc(Cl)cc(Cl)c3)c1)CCCC2 [JAG199]	ND/5 μM		
Cc1[nH]c2c(c(=O)c1-c1ccc(Oc3cccc(OC(F)(F)F)c3)cc1)CCCC2 [AS006]		0.55 μM	T1/2 (M) [3]: 25.88
Cc1[nH]c2c(c(=O)c1-c1ccc(Oc3cccc(Cl)c3)cc1)CCCC2 [JAG062]		0.33 μM	T1/2 (M) [3]: 12.42

Structure (SMILES)	Toxicity* (highest concentration tested that does not show toxicity to HFF) [1]	PBS Sol pH7.4 [2]	further results
Cc1[nH]c2ccccc2c(=O)c1-c1ccc(Oc2ccc(OC(F)(F)F)cc2)cc1 [ELQ271, reference compound]		0.15 μM	solubility ([2]; amorphous compounds): 0.2 µM (≈ 0.0823 µg/mL)
Cc1[nH]c2c(c(=O)c1-c1cccc(Oc3ccc(Cl)cc3)c1)CCCC2 [NP034]	ND/5 μM		
Cc1[nH]c2c(c(=O)c1-c1ccc(Oc3cc(Cl)cc(Cl)c3)cc1)CCC(C)C2 (stereo not shown) [JAG208]	ND/5 μM		
Cc1c(-c2ccc(Oc3ccc(OC(F)(F)F)cc3)cc2)c(=O)c2c(n1C)CCCC2 [JAG023]	ND/5 μM		
Cc1[nH]c2cnccc2c(=O)c1-c1ccc(Oc2ccc(OC(F)(F)F)cc2)cc1 [JAG129]		5.12 μM	
O=c1[nH]c2c(c(=O)n1-c1ccc(Oc3ccccc3)cc1)CCCC2 [JAG095]	ND/5 μM		
Cc1[nH]c2c(c(=O)c1-c1ccc(Oc3cc(Cl)nc(Cl)c3)cc1)CCCC2 [AS034]		5.05 μM	T1/2 (M) [3]: 24.93
Cc1[nH]c2c(c(=O)c1-c1ccc(Oc3cccc(C(F)(F)F)c3)cc1)CCCC2 [AS012]		2.19 μM	T1/2 (M) [3]: 30.05
CSc1nc2[nH]c(C)c(-c3ccc(Oc4ccc(OC(F)(F)F)cc4)cc3)c(=O)n2n1 [JAG013]	ND/5 μM		
Cc1[nH]c2c(c(=O)c1-c1ccc(Oc3ccc(OC(F)(F)F)cc3)cc1)CCC(C)C2 (stereo not shown) [JAG107]		0.03 μM	T1/2 (M) [3]: 111.93
Cc1[nH]c2c(c(=O)c1-c1ccc(Oc3cccc(F)c3)cc1)CCCC2 [JAG069]		0.5 μM	T1/2 (M) [3]: 17.38
Cc1[nH]c2c(c(=O)c1-c1ccc(Oc3ccc(OC(F)(F)F)cc3)nc1)CCCC2 [JAG092]	ND/5 μM		
Cc1[nH]c2ncnn2c(=O)c1-c1ccc(Oc2ccc(OC(F)(F)F)cc2)cc1 [MJM136]	ND/5 μM		
Cc1[nH]c2c(c(=O)c1-c1cccc(Oc3ccc(F)c(Cl)c3)c1)CCCC2 [JAG200]	ND/5 μM		
Cc1[nH]c2c(c(=O)c1-c1ccc(Oc3ccc(C(=O)O)cc3)nc1)CCCC2 [JAG022]	ND/5 μM		
Cc1[nH]c2c(c(=O)c1-c1ccc(Oc3ccc(C(F)(F)F)cc3)cc1)CCCC2 [JAG063]		0.45 μM	T1/2 (M) [3]: 126.96
Cc1[nH]c2c(c(=O)c1-c1cccc(Oc3ccc(OC(F)(F)F)cc3)c1)CCCC2 [NP032]	ND/5 μM		
CCC1CCc2c([nH]c(CO)c(-c3ccc(Oc4ccc(OC(F)(F)F)cc4)cc3)c2=O)C1 (stereo not shown) [JAG174]	ND/5 μM		
Cc1[nH]c2ccccc2c(=O)c1-c1ccc(Oc2ccccc2)cc1 [MJM129]	ND/5 μM		
CC1CCc2c([nH]c(CO)c(-c3ccc(Oc4ccc(OC(F)(F)F)cc4)cc3)c2=O)C1 (stereo not shown) [JAG193]	ND/5 μM		
Cc1[nH]c2c(C#N)cnn2c(=O)c1-c1ccc(Oc2ccc(OC(F)(F)F)cc2)cc1 [JAG014]	ND/5 μM		
Cc1[nH]c2c(c(=O)c1-c1ccc(Oc3ccc4c(c3)OCO4)cc1)CCCC2 [AS032]	ND/5 μM		
